Measured values taken from patent publication US7351719B2, “Amide compounds having MCH-antagonistic activity and medicaments comprising these compounds” (Boehringer Ingelheim Pharma GmbH & Co. KG, priority 2002, dated 2008).
pIC50: −log10 of the molar value.

Target: T1, hMCH-1R (Homo sapiens, UniProt Q99705)
T1 construct: expressed in transfected cells; host or cells: CHO/Galpha16 cells (stably transfected); membranes used
Test: MCH-1 receptor binding test (125I-MCH binding to hMCH-1R transfected cell membranes)
Settings: hMCH-1R transfected CHO/Galpha16 cell membranes
Protocol: Membranes from CHO/Galpha 16 cells stably transfected with human hMCH-1R are resuspended using a syringe (needle 0.6×25 mm) and diluted in test buffer (50 mM HEPES, 10 mM MgCl2, 2 mM EGTA, pH 7.00; 0.1% bovine serum albumin (protease-free), 0.021% bacitracin,1 μg/mL aprotinin, 1 μg/mL leupeptin and 1 μM phosphoramidone) to a concentration of 5 to 15 μg/mL. […] After the incubation the reaction is filtered using a cell harvester through 0.5% PEI treated glass fibre filters (GF/B, Unifilter Packard). The membrane-bound radioactivity retained on the filter is then determined after the addition of scintillator substance (Packard Microscint 20) in a measuring device (TopCount of Packard).
The analysis of the concentration binding curve is carried out on the assumption of one receptor binding site.

T1 sequence (Q99705 whole entry): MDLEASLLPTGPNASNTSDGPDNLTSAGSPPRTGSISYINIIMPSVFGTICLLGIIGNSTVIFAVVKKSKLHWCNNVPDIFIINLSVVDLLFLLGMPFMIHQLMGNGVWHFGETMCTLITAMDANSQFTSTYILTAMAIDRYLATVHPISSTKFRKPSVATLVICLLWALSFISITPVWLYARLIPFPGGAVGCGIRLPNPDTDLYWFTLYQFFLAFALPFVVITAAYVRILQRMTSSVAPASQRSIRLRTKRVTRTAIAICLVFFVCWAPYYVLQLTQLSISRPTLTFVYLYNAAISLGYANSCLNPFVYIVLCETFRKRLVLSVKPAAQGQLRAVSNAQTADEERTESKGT

SMILES | pIC50
CCN(CC)CCOc1ccc(NC(=O)COc2ccc(C(C)(C)C)cc2Cl)cc1Cl [Example 34] | 7.77
CCN(CC)CCn1ccc2cc(NC(=O)COc3ccc(C(F)(F)F)cc3Cl)ccc21 [Example 12] | 7.39
